Converted amounts (≈) assume the structure as drawn.
Columns and labels:
Enterovirus A71 = experiment: Antiviral activity against human EV71 infected in human RD cells assessed as inhibition of cytopathic effect by microscopy based analysis; type: functional, organism-based; conditions: Enterovirus A
Zika virus = experiment: Antiviral activity against Zika virus infected in african green monkey Vero E6 cells assessed as inhibition of cytopathic effect by microscopy based analysis; type: functional, organism-based; conditions: Vero C1008
Chikungunya virus = experiment: Antiviral activity against CHIKV infected in African green monkey Vero A cells assessed as inhibition of cytopathic effect by microscopy based analysis; type: functional, organism-based
Escherichia coli [1] = experiment: Antibacterial activity against Escherichia coli CIP 53154 assessed as reduction in bacterial growth by micro-broth dilution method; type: functional
Staphylococcus aureus [2] = experiment: Ratio of MBC to MIC for Staphylococcus aureus CIP 54127; type: functional
Enterococcus faecalis [3] = experiment: Antibacterial activity against Enterococcus faecalis assessed as reduction in bacterial growth by micro-broth dilution method; type: functional
Staphylococcus aureus [4] = experiment: Antibacterial activity against Staphylococcus aureus CIP 54127 assessed as reduction in bacterial growth by micro-broth dilution method; type: functional
Yellow fever virus = experiment: Antiviral activity against Yellow fever virus infected in human Huh-7 cells assessed as inhibition of cytopathic effect by microscopy based analysis; type: functional, organism-based
[5] = Cytotoxicity against African green monkey Vero A cells; type: toxicity, cell-based; conditions: chlorocebus sabaeus
Enterococcus faecalis [6] = experiment: Ratio of MBC to MIC for Enterococcus faecalis; type: functional
Escherichia coli [7] = experiment: Ratio of MBC to MIC for Escherichia coli CIP 53154; type: functional
[8] = Cytotoxicity against human HeLa-RH cells; type: toxicity, cell-based
Enterococcus faecalis [9] = experiment: Bactericidal activity against Enterococcus faecalis; type: functional
[10] = Cytotoxicity against human RD cells; type: toxicity, cell-based
Escherichia coli [11] = experiment: Bactericidal activity against Escherichia coli CIP 53154; type: functional
Pseudomonas aeruginosa [12] = experiment: Antibacterial activity against Pseudomonas aeruginosa CIP A22 assessed as reduction in bacterial growth by micro-broth dilution method; type: functional
Pseudomonas aeruginosa [13] = experiment: Bactericidal activity against Pseudomonas aeruginosa CIP A22; type: functional
Pseudomonas aeruginosa [14] = experiment: Ratio of MBC to MIC for Pseudomonas aeruginosa CIP A22; type: functional
Human rhinovirus sp. [15] = experiment: Antiviral activity against Human rhinovirus A2 infected in human HeLa-RH cells assessed as inhibition of cytopathic effect by microscopy based analysis; type: functional, organism-based
[16] = Cytotoxicity against human Huh-7 cells; type: toxicity, cell-based
Human rhinovirus sp. [17] = experiment: Antiviral activity against Human rhinovirus B14 infected in human HeLa-RH cells assessed as inhibition of cytopathic effect by microscopy based analysis; type: functional, organism-based
[18] = Cytotoxicity against African green monkey Vero E6 cells; type: toxicity, cell-based, Vero C1008; conditions: chlorocebus sabaeus
Staphylococcus aureus [19] = experiment: Bactericidal activity against Staphylococcus aureus CIP 54127; type: functional

| Compound | IC50 (Enterovirus A71) | IC50 (Zika virus) | IC50 (Chikungunya virus) | MIC (Escherichia coli [1]) | Ratio (Staphylococcus aureus [2]) | MIC (Enterococcus faecalis [3]) | MIC (Staphylococcus aureus [4]) | IC50 (Yellow fever virus) | CC50 [5] | Ratio (Enterococcus faecalis [6]) | Ratio (Escherichia coli [7]) | CC50 [8] | MBC (Enterococcus faecalis [9]) | CC50 [10] | MBC (Escherichia coli [11]) | MIC (Pseudomonas aeruginosa [12]) | MBC (Pseudomonas aeruginosa [13]) | Ratio (Pseudomonas aeruginosa [14]) | IC50 (Human rhinovirus sp. [15]) | MBC (Staphylococcus aureus [19]) | also measured |
| --- | --- | --- | --- | --- | --- | --- | --- | --- | --- | --- | --- | --- | --- | --- | --- | --- | --- | --- | --- | --- | --- |
| CCOP(=O)(OCC)C(Nc1ccc(C)cc1)c1cc(Cn2cc(Cn3c(=O)cc(C)c4ccccc43)nn2)ccc1O (configuration not stated) | > 100 µM | > 100 µM | > 100 µM | 520 µM (≈ 313 µg/mL) | 1 | 70 µM (≈ 42.1 µg/mL) | 520 µM (≈ 313 µg/mL) | > 100 µM | > 100 µM | 1 | 1 | > 100 µM | 70 µM (≈ 42.1 µg/mL) | > 100 µM | 520 µM (≈ 313 µg/mL) | 4160 µM (≈ 2500 µg/mL) | 4160 µM (≈ 2500 µg/mL) | 2 | > 3.7 µM | 520 µM (≈ 313 µg/mL) | CC50 [16]: 27.9 µM; IC50 (Human rhinovirus sp. [17]): > 100 µM; CC50 [18]: > 100 µM |
| CCOP(=O)(OCC)C(Nc1ccc(F)cc1)c1cc(Cn2cc(Cn3c(=O)cc(C)c4cc(F)ccc43)nn2)ccc1O (configuration not stated) | > 100 µM | > 100 µM | > 100 µM | 1010 µM (≈ 630 µg/mL) | 1 | 130 µM (≈ 81.1 µg/mL) | 500 µM (≈ 312 µg/mL) | > 100 µM | > 100 µM | 1 | 1 | > 100 µM | 130 µM (≈ 81.1 µg/mL) | > 100 µM | 1010 µM (≈ 630 µg/mL) | 8020 µM (≈ 5000 µg/mL) | 8020 µM (≈ 5000 µg/mL) | 2 | > 3.7 µM | 500 µM (≈ 312 µg/mL) | CC50 [16]: 29.3 µM; IC50 (Human rhinovirus sp. [17]): > 100 µM; CC50 [18]: > 100 µM |
| CCN(CC)CCCC(C)Nc1ccnc2cc(Cl)ccc12 (configuration not stated) [CHLOROQUINE] | – | – | 11 µM | – | – | – | – | – | 89 µM | – | – | – | – | – | – | – | – | – | – | – | – |
| CC1(C)S[C@@H]2[C@H](NC(=O)[C@H](N)c3ccccc3)C(=O)N2[C@H]1C(=O)O [AMPICILLIN] | – | – | – | 260 µM (≈ 90.8 µg/mL) | 1 | 260 µM (≈ 90.8 µg/mL) | 270 µM (≈ 94.3 µg/mL) | – | – | 1 | 2.04 | – | 260 µM (≈ 90.8 µg/mL) | – | 530 µM (≈ 185 µg/mL) | 530 µM (≈ 185 µg/mL) | 530 µM (≈ 185 µg/mL) | 1.96 | – | 270 µM (≈ 94.3 µg/mL) | – |
| CCOP(=O)(OCC)C(Nc1ccccc1)c1cc(Cn2cc(Cn3c(=O)cc(C)c4cc(F)ccc43)nn2)ccc1O (configuration not stated) | > 100 µM | > 100 µM | > 100 µM | 1040 µM (≈ 630 µg/mL) | 2.04 | 2060 µM (≈ 1250 µg/mL) | 510 µM (≈ 309 µg/mL) | > 100 µM | > 100 µM | 1 | 1 | > 100 µM | 2060 µM (≈ 1250 µg/mL) | > 100 µM | 1040 µM (≈ 630 µg/mL) | 8260 µM (≈ 5000 µg/mL) | 8260 µM (≈ 5000 µg/mL) | 2 | > 1.23 µM | 1040 µM (≈ 630 µg/mL) | CC50 [16]: 46.2 µM; IC50 (Human rhinovirus sp. [17]): > 100 µM; CC50 [18]: > 33.3 µM |
| CCOP(=O)(OCC)C(Nc1ccccc1Cl)c1cc(Cn2cc(Cn3c(=O)cc(C)c4ccccc43)nn2)ccc1O (configuration not stated) | > 100 µM | > 100 µM | > 33.3 µM | 260 µM (≈ 162 µg/mL) | 1 | 60 µM (≈ 37.3 µg/mL) | 500 µM (≈ 311 µg/mL) | > 100 µM | 24.3 µM | 1 | 1 | 52.1 µM | 60 µM (≈ 37.3 µg/mL) | > 100 µM | 260 µM (≈ 162 µg/mL) | 1010 µM (≈ 628 µg/mL) | 1010 µM (≈ 628 µg/mL) | 1 | > 1.23 µM | 500 µM (≈ 311 µg/mL) | CC50 [16]: 30.5 µM; IC50 (Human rhinovirus sp. [17]): > 100 µM; CC50 [18]: > 33.3 µM |
| CO[C@H]1/C=C/O[C@@]2(C)Oc3c(C)c(O)c4c(O)c(c(/C=N/N5CCN(C)CC5)c(O)c4c3C2=O)NC(=O)/C(C)=C\C=C\[C@H](C)[C@H](O)[C@@H](C)[C@@H](O)[C@@H](C)[C@H](OC(C)=O)[C@@H]1C [RIFAMPIN] | – | – | – | 300 µM (≈ 247 µg/mL) | 1.88 | 300 µM (≈ 247 µg/mL) | 80 µM (≈ 65.8 µg/mL) | – | – | 1 | 2.03 | – | 300 µM (≈ 247 µg/mL) | – | 610 µM (≈ 502 µg/mL) | 610 µM (≈ 502 µg/mL) | 610 µM (≈ 502 µg/mL) | 2.03 | – | 150 µM (≈ 123 µg/mL) | – |
| CCOP(=O)(OCC)C(Nc1ccccc1OC)c1cc(Cn2cc(Cn3c(=O)cc(C)c4cc(F)ccc43)nn2)ccc1O (configuration not stated) | > 100 µM | > 100 µM | > 100 µM | 1970 µM (≈ 1250 µg/mL) | 1.96 | 60 µM (≈ 38.1 µg/mL) | 250 µM (≈ 159 µg/mL) | > 100 µM | 40.8 µM | 1 | 1 | > 100 µM | 60 µM (≈ 38.1 µg/mL) | > 100 µM | 1970 µM (≈ 1250 µg/mL) | 1970 µM (≈ 1250 µg/mL) | 1970 µM (≈ 1250 µg/mL) | 1.99 | > 1.23 µM | 490 µM (≈ 311 µg/mL) | CC50 [16]: 88 µM; IC50 (Human rhinovirus sp. [17]): > 100 µM; CC50 [18]: > 33.3 µM |
| CCOP(=O)(OCC)C(Nc1ccc(C)cc1)c1cc(Cn2cc(Cn3c(=O)cc(C)c4cc(F)ccc43)nn2)ccc1O (configuration not stated) | > 100 µM | > 100 µM | > 100 µM | 930 µM (≈ 576 µg/mL) | 1 | 60 µM (≈ 37.2 µg/mL) | 240 µM (≈ 149 µg/mL) | > 100 µM | > 33.3 µM | 1 | 1 | > 100 µM | 60 µM (≈ 37.2 µg/mL) | > 100 µM | 930 µM (≈ 576 µg/mL) | 7350 µM (≈ 4550 µg/mL) | 7350 µM (≈ 4550 µg/mL) | 2 | > 11.1 µM | 240 µM (≈ 149 µg/mL) | CC50 [16]: > 100 µM; IC50 (Human rhinovirus sp. [17]): > 100 µM; CC50 [18]: > 100 µM |
| CCOP(=O)(OCC)C(Nc1ccccc1OC)c1cc(Cn2cc(Cn3c(=O)cc(C)c4ccccc43)nn2)ccc1O (configuration not stated) | > 100 µM | > 100 µM | > 100 µM | 500 µM (≈ 309 µg/mL) | 1.92 | 2020 µM (≈ 1250 µg/mL) | 260 µM (≈ 161 µg/mL) | > 100 µM | 77.2 µM | 1 | 2.04 | > 33.3 µM | 2020 µM (≈ 1250 µg/mL) | > 100 µM | 1020 µM (≈ 630 µg/mL) | 1020 µM (≈ 630 µg/mL) | 1020 µM (≈ 630 µg/mL) | 1 | > 1.23 µM | 500 µM (≈ 309 µg/mL) | CC50 [16]: 51.8 µM; IC50 (Human rhinovirus sp. [17]): > 100 µM; CC50 [18]: > 33.3 µM |

— ChEMBL document CHEMBL5505983, “Design, synthesis, and molecular modeling studies of novel 2-quinolone-1,2,3-triazole-α-aminophosphonates hybrids as dual antiviral and antibacterial agents” (Eur J Med Chem, 2024)
